In brackets after ≈: the same amount, converted by molar mass. Where two headings read alike, the source gives them in different places.
Assays:
[1] = test system: C. difficile NAP1/027 ATCC BAA-1803; assay: MIC broth microdilution, C. difficile NAP1/027 ATCC BAA-1803; assay type: cell-based, Clostridium difficile; conditions: for MIC: Clostridioides difficile
Protocol: All compounds were tested for activity against a set of anaerobic C. difficile bacteria (630 ATCC BAA-1382, NAP1/027 M7404, NAP1/027 ATCC BAA-1803, VPI10463 ATCC 43255, CD26A54_S and CD26A54_R) and representative ESKAPE pathogens S. aureus (MRSA ATCC 43300), E. coli (ATCC 25922), K. pneumoniae (ATCC 700603), A. baumannii (ATCC 19606) and P. aeruginosa (ATCC 27853) using a standard broth microdilution assay. Selected compounds were tested for activity against H. pylori strains (26695, and clinical isolates MtzS 13/25, MtzR 98/285 and MtzR 13/61) using agar plate dilution, and for antimicrobial activity against […] Gram-positive bacterial strains: Enterococcus faecalis (VanA clinical isolate), Enterococcus faecium (MDR VanA ATCC 51559), Streptococcus pneumoniae (MDR ATCC 700677), S. aureus (MRSA ATCC 43300, MRSA clinical isolate, MRSA/DRSA clinical isolate, GISA NARSA NRS 1, GISA NARSA NRS 17, VRSA NARSA VRS1, VRSA NARSA VRS4 and VRSA NARSA VRS10) using broth microdilution. C. difficile strains were grown at 37 °C in a COY anaerobic chamber (5% H2, 10% CO2, 85% N2). H. pylori strains were grown at 37 °C under a microaerobic atmosphere (5% O2, 10% CO2). All facultative anaerobic bacteria were grown at 37 °C with normal atmospheric oxygen levels. All experiments were performed in duplicate with metronidazole, vancomycin, linezolid or colistin as positive controls for relevant strains (see Table 1). Positive growth control of bacteria and DMSO as well as a negative control of only media were included for every plate. Full assay details are provided in the supplementary information.
C. difficile ATCC BAA-1382, ATCC BAA-1803, ATCC 43255 and M7404 heat shocked spore stocks (10 µL) were transferred into the anaerobic chamber and 10 µL streaked onto pre-reduced (at least 2.5 hr in anaerobic chamber) BHIS agar plates supplemented with 0.1% w/v sodium taurocholate (BHIS(TA)). Plates were incubated for 24 hours prior to assay to give colonies of size 1-3mm diameter with characteristic uneven borders.
The minimum inhibition concentration was determined according to the CLSI Methods with modifications in broth and inoculum for C. difficile according to Babakhani et al.^7,8 Briefly, compounds were prepared to 20X final concentration in 100% water, 60% DMSO and 40% water or 60% DMSO and 40% media. The compounds along with standard antibiotics were serially diluted two-fold across the wells of 96-well non-binding surface plates (Non binding surface, Corning). The plates were placed in the anaerobic chamber overnight to reduce. C. difficile bacteria from BHIS(TA) agar plates were cultured anaerobically in BHIS at 37 °C overnight. A sample of culture was then diluted 40-fold in BHIS broth and incubated at 37 °C for approximately 4.5 hrs. The resultant mid-log phase culture (OD600= 0.5-0.6) was diluted to the final concentration of ~1×10^6 CFU/mL, then 50 µL was added to each well of the compound-containing 96-well plates. This gave final cell concentration of 5×10^5 CFU/mL, final volume 100 µL and 3% maximum DMSO concentration. Compound concentration was typically from 64 to 0.03 µg/mL. An antibiotic standard was included on each 96 well plate as well as a positive growth control (no compound) and sterility control (no bacteria). […] MICs were the lowest concentration showing no visible growth.

G. lamblia 713-M3 (713M) [2] = assay: ATP-bioluminescence growth and survival assay, metronidazole resistant G. lamblia 713-M3; assay type: cell-based; conditions: Giardia duodenalis, read-out: EC50 G. lamblia 713M
Protocol: Compounds were tested for antiparasitic activity against E. histolytica (HM1:1MSS strain) and G. lamblia (WB, BRIS/87/HEPU/713 (713), BRIS/83/HEPU/106 (106) and the metronidazole resistant syngeneic line 713-M3 [[15,16]]) using an ATP-bioluminescence based screen for cell growth and survival [[17,18]]. Assay plates were inoculated with trophozoites (5 × 10^3 parasites/well) and incubated in the GasPak™ EZ Anaerobe Gas Generating Pouch Systems (VWR, West Chester, PA) to maintain anaerobic conditions throughout the incubation period. The assays were performed in triplicate using the CellTiter-Glo Luminescent Cell Viability Assay. Metronidazole was used as a positive control.
Trophozoites of E. histolytica strain HM1:IMSS and G. lamblia strains WB, BRIS/87/HEPU/713 (713),^10 BRIS/83/HEPU/106 (106)^11 and the metronidazole resistant syngenic line 713-M3^10,11 were axenically maintained in TYI-S-33 medium supplemented with penicillin (100 U/ml), streptomycin (100 µg/ml).^12 E. histolytica and G. lamblia trophozoites were counted using a particle counter (Beckman Coulter, Fullerton, CA). All experiments were performed using trophozoites harvested during the logarithmic phase of growth.
A three-fold serial dilution was then performed yielding a concentration range 0.25-625 µM. From this dilution plate, 4 µL were transferred into the 96-well screen plates followed by addition of 96 µL of trophozoites (5,000 parasites) to yield a final 8-point concentration range spanning 0.01- 25 µM. Assay plates were incubated for 48 h at 37 °C in the GasPak^TM EZ Anaerobe Gas Generating Pouch Systems (VWR, West Chester, PA) to maintain anaerobic condition throughout the incubation period. The assays were performed in triplicate using the CellTiter-Glo Luminescent Cell Viability Assay.^13

G. lamblia 713-M3 (713M) [3] = test system: G. lamblia 713-M3 (713M); parameters: method as in earlier work; conditions: MtzR, crude Mtz-triazoles (>85% purity), ref 15 (Miyamoto et al.); read-out: EC50 G. lamblia 713M, Lit.; cited from earlier work
[4] = ATCC 43255 / ATCC BAA-1803, NAP1/027 (footnote c: ATCC 43255), MtzS, 24 h, median of at least n = 4, read-out: MIC C. difficile NAP1/027 (footnote c)
[5] = ATCCBAA1803, 24 hr incubation, read-out: MIC C. difficile NAP1/027 ATCC BAA-1803 24 hr
[6] = ATCCBAA1803, 48 hr incubation, read-out: MIC C. difficile NAP1/027 ATCC BAA-1803 48 hr

Row | Compound | MIC [1, 4] [µg/mL] | MIC [1, 5] [µg/mL] | MIC [1, 6] [µg/mL] | EC50 (G. lamblia 713-M3 (713M) [2]) [µM] | EC50 (G. lamblia 713-M3 (713M) [3]) [µM] | MIC C. difficile NAP1/027 ATCC BAA-1803 24 hr ([1]; 24 hr incubation) [µg/mL] | MIC C. difficile NAP1/027 ATCC BAA-1803 48 hr ([1]; 48 hr incubation) [µg/mL] | MIC C. difficile NAP1/027 (footnote c) ([1]; NAP1/027 (footnote c: ATCC 43255), MtzS, 24 h, median of at least n = 4) [µg/mL]
1 | Cc1ncc([N+](=O)[O-])n1CCn1cc(-c2ccc(Cl)cc2)nn1 [Compound 4c, 1-(2-(2-methyl-5-nitro-1H-imidazol-1-yl)ethyl)-4-(4-chlorophenyl)-1H-1,2,3-triazole] | 0.25 (≈ 0.751 µM) | 0.25 (≈ 0.751 µM) | 0.5 (≈ 1.5 µM) | 3.5 | – | – | – | –
2 | Cc1ncc([N+](=O)[O-])n1CCn1cc(CN2CCS(=O)(=O)CC2)nn1 [Compound 4o, 1-(2-(2-methyl-5-nitro-1H-imidazol-1-yl)ethyl)-4-((1,1-dioxothiomorpholin-4-yl)methyl)-1H-1,2,3-triazole] | > 64 | > 64 | > 64 | – | – | – | – | –
3 | Cc1ncc([N+](=O)[O-])n1CCn1cc(Cc2ccccc2)nn1 [Compound 4k, 1-(2-(2-methyl-5-nitro-1H-imidazol-1-yl)ethyl)-4-benzyl-1H-1,2,3-triazole] | 0.5 (≈ 1.6 µM) | 0.5 (≈ 1.6 µM) | 0.5 (≈ 1.6 µM) | 1.1 | 5.2 | – | – | –
4 | Cc1ccc(-c2cn(CCn3c([N+](=O)[O-])cnc3C)nn2)cc1 [Compound 4e, 1-(2-(2-methyl-5-nitro-1H-imidazol-1-yl)ethyl)-4-(p-tolyl)-1H-1,2,3-triazole] | 0.5 (≈ 1.6 µM) | 0.5 (≈ 1.6 µM) | 0.5 (≈ 1.6 µM) | 1 | 8.1 | – | – | –
5 | Cc1ncc([N+](=O)[O-])n1CCn1cc(CO)nn1 [Compound 4q, 1-(2-(2-methyl-5-nitro-1H-imidazol-1-yl)ethyl)-4-(hydroxymethyl)-1H-1,2,3-triazole] | 16 to 32 (≈ 63.4 to 127 µM) | 16 (≈ 63.4 µM) | 16 to 32 (≈ 63.4 to 127 µM) | – | – | – | – | –
6 | Cc1ncc([N+](=O)[O-])n1CCn1cc(-c2ccccc2)nn1 [Compound 4a, 1-(2-(2-methyl-5-nitro-1H-imidazol-1-yl)ethyl)-4-phenyl-1H-1,2,3-triazole] | 0.5 (≈ 1.68 µM) | 0.5 (≈ 1.68 µM) | 0.5 (≈ 1.68 µM) | 2.3 | 5.3 | – | – | –
7 | Cc1ncc([N+](=O)[O-])n1CCn1cc(CN)nn1.O=C(O)C(F)(F)F [Compound 4t, 1-(2-(2-methyl-5-nitro-1H-imidazol-1-yl)ethyl)-4-(aminomethyl)-1H-1,2,3-triazole trifluoroacetate salt] | > 64 | > 64 | > 64 | – | – | – | – | –
8 | COc1ccc(-c2cn(CCn3c([N+](=O)[O-])cnc3C)nn2)cc1 [Compound 4b, 1-(2-(2-methyl-5-nitro-1H-imidazol-1-yl)ethyl)-4-(4-methoxyphenyl)-1H-1,2,3-triazole] | 0.5 (≈ 1.52 µM) | 0.5 (≈ 1.52 µM) | 0.5 (≈ 1.52 µM) | 1 | – | – | – | –
9 | Cc1ncc([N+](=O)[O-])n1CCn1cc(CCO)nn1 [Compound 4p, 1-(2-(2-methyl-5-nitro-1H-imidazol-1-yl)ethyl)-4-(2-hydroxyethyl)-1H-1,2,3-triazole] | 16 (≈ 60.1 µM) | 8 (≈ 30 µM) | 8 to 16 (≈ 30 to 60.1 µM) | – | – | – | – | –
10 | Cc1ncc([N+](=O)[O-])n1CCn1cc(-c2ccsc2)nn1 [Compound 4n, 1-(2-(2-methyl-5-nitro-1H-imidazol-1-yl)ethyl)-4-(thiophen-3-yl)-1H-1,2,3-triazole] | 0.5 (≈ 1.64 µM) | 0.5 (≈ 1.64 µM) | 0.5 (≈ 1.64 µM) | 0.9 | 6.9 | – | – | –
11 | Cc1ncc([N+](=O)[O-])n1CCn1cc(-c2ncccn2)nn1 [Compound 4j, 1-(2-(2-methyl-5-nitro-1H-imidazol-1-yl)ethyl)-4-(2-pyrimidinyl)-1H-1,2,3-triazole] | 2 (≈ 6.66 µM) | 2 (≈ 6.66 µM) | 2 (≈ 6.66 µM) | – | – | – | – | –
12 | Cc1ncc([N+](=O)[O-])n1CCn1cc(-c2ccc(Cl)c(Cl)c2)nn1 [Compound 4d, 1-(2-(2-methyl-5-nitro-1H-imidazol-1-yl)ethyl)-4-(3,4-dichlorophenyl)-1H-1,2,3-triazole] | 1 (≈ 2.72 µM) | 1 (≈ 2.72 µM) | 0.5 to 8 (≈ 1.36 to 21.8 µM) | 1.2 | 0.57 | – | – | –
13 | Cc1ncc([N+](=O)[O-])n1CCN=[N+]=[N-] [Compound 3, 1-(2-azidoethyl)-2-methyl-5-nitro-1H-imidazole] | – | – | – | – | – | 0.5 (≈ 2.55 µM) | 1 (≈ 5.1 µM) | 0.5 (≈ 2.55 µM)
14 | Cc1ncc([N+](=O)[O-])n1CCn1cc(-c2cncnc2)nn1 [Compound 4i, 1-(2-(2-methyl-5-nitro-1H-imidazol-1-yl)ethyl)-4-(5-pyrimidinyl)-1H-1,2,3-triazole] | 0.5 to 1 (≈ 1.67 to 3.33 µM) | 1 (≈ 3.33 µM) | 1 (≈ 3.33 µM) | – | – | – | – | –
15 | Cc1ncc([N+](=O)[O-])n1CCn1cc(C(O)c2ccccc2)nn1 (stereo not shown) [Compound 4l, 1-(2-(2-methyl-5-nitro-1H-imidazol-1-yl)ethyl)-4-(1-phenyl-1-hydroxylmethyl)-1H-1,2,3-triazole] | 1 (≈ 3.05 µM) | 0.5 to 1 (≈ 1.52 to 3.05 µM) | 1 (≈ 3.05 µM) | 3 | – | – | – | –
16 | Cc1ncc([N+](=O)[O-])n1CCn1cc(CCC(=O)O)nn1 [Compound 4r, sodium 1-(2-(2-methyl-5-nitro-1H-imidazol-1-yl)ethyl)-4-(carboxyethyl)-1H-1,2,3-triazole] | > 64 | > 64 | > 64 | – | – | – | – | –

— paper PMC4550478, “Metronidazole-triazole conjugates: Activity against Clostridium difficile and parasites” (European Journal of Medicinal Chemistry, 2015)
